What was measured:
[1] = molecular target: T1, 5-HT1A receptor (rat hippocampus) (Rattus norvegicus, UniProt P19327); assay: Radioligand binding assay, serotoninergic 5-HT1A receptors; settings: binding assay result in %, Table 5a;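 note: test compound at 1 µM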
T1 construct: hippocampus; from tissue; host or cells: rat hippocampus
T1 sequence (P19327 1-422): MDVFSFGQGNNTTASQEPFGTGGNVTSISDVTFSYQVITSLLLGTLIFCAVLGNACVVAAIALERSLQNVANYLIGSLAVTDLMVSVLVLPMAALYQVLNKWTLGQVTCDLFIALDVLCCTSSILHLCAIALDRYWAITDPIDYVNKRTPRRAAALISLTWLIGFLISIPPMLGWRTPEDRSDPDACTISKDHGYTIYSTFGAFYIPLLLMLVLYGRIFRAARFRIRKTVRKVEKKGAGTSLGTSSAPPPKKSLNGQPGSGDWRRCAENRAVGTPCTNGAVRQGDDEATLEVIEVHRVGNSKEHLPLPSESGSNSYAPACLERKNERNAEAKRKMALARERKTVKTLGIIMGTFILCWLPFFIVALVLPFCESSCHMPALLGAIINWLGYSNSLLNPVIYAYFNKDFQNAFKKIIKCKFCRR

5-HT2C receptor = molecular target: T2, 5-HT2C receptor (Homo sapiens, UniProt P28335); assay: Radioligand binding assay, serotoninergic 5-HT2C receptors; settings: test compound 1×10^−6 M
T2 construct: expressed in transfected cells; host or cells: HEK-293 cells
T2 sequence (P28335 33-458): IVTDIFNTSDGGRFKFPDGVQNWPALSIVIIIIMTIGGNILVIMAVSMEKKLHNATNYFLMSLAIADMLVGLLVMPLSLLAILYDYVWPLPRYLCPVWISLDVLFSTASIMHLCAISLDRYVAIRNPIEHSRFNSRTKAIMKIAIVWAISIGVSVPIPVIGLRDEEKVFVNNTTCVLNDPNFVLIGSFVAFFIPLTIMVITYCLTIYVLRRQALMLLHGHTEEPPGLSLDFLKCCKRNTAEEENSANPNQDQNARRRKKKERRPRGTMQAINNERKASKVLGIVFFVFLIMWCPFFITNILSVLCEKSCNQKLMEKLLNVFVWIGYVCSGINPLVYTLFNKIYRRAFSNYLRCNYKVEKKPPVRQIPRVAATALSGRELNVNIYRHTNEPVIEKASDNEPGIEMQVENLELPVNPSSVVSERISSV
Excerpt: (§1) The specific ligand binding to the receptors is defined as the difference between the total binding and the non-specific binding determined in the presence of the excess of unlabelled ligand.
(§2) The results are expressed as a percent of control specific binding ((measured specific binding/control specific binding)×100) and as a percent inhibition of control specific binding (100−((measured specific binding/control specific binding)×100)) obtained in the presence of the test compounds. The specific ligand binding to the receptors is defined as the difference between the total binding and the nonspecific binding determined in the presence of an excess of unlabelled ligand. Scintillation counting was the method of detection of ligand binding. The IC50 values (concentration causing a half-maximal inhibition of control specific binding) were determined by non-linear regression analysis of the competition curves generated with mean replicate values using Hill equation curve fitting (Y=D+[(A−D)/(1+(C/C50)nH)], where Y=specific binding, D=minimum specific binding, A=maximum specific binding, C=compound concentration, C50=IC50, and nH=slope factor). This analysis was performed using a software developed at Cerep (Hill software) and validated by comparison with data generated by the commercial software SigmaPlot® 4.0 for Windows® (© 1997 by SPSS Inc.). The inhibition constants (Ki) were calculated using the Cheng Prusoff equation (Ki=IC50/(1+(L/KD)), where L=concentration of radioligand in the assay, and KD=affinity of the radioligand for the receptor). A scatchard plot was used to determine the Kd.
Experimental conditions for tests are given in Table 4, and results of tests for representative compounds of the invention are given in Table 5a and 5b (receptors 5-HT1A, 5-HT2A, 5-HT6 and 5-HT7) and in Table 6 (receptors 5-HT2C).

5-HT7 receptor = molecular target: T3, 5-HT7 receptor (Homo sapiens, UniProt P34969); assay: Radioligand binding assay, serotoninergic 5-HT7 receptors; settings: binding assay result in %, Table 5a;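 note: test compound at 1 µM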
T3 construct: purchased PerkinElmer
T3 sequence (P34969 whole entry): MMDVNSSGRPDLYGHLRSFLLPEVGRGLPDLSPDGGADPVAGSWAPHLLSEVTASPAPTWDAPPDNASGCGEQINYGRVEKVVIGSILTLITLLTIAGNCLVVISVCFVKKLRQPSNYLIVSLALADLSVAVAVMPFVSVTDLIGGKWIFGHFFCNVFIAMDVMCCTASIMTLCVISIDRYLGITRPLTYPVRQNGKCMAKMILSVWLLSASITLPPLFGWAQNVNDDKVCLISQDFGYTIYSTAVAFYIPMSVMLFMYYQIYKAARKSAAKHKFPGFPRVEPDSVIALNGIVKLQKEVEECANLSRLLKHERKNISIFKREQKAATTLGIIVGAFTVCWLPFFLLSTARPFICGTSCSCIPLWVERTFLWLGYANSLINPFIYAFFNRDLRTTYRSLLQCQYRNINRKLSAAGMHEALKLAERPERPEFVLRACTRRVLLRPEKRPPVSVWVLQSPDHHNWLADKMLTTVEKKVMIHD
Method in brief: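 Competition binding at human 5-HT7 receptors with a radioligand, detected by scintillation counting; non-specific binding was defined with excess unlabelled ligand. IC50 came from Hill-equation fits of competition curves, and Ki from Cheng–Prusoff using radioligand concentration and Scatchard-derived KD.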

α2C adrenergic receptors = molecular target: T4, α2C adrenergic receptors (Homo sapiens, UniProt P18825); assay: Radioligand binding assay, adrenergic α2C receptors; settings: test compound 1×10^−6 M
T4 construct: expressed in transfected cells; host or cells: CHO cells
T4 sequence (P18825 1-462): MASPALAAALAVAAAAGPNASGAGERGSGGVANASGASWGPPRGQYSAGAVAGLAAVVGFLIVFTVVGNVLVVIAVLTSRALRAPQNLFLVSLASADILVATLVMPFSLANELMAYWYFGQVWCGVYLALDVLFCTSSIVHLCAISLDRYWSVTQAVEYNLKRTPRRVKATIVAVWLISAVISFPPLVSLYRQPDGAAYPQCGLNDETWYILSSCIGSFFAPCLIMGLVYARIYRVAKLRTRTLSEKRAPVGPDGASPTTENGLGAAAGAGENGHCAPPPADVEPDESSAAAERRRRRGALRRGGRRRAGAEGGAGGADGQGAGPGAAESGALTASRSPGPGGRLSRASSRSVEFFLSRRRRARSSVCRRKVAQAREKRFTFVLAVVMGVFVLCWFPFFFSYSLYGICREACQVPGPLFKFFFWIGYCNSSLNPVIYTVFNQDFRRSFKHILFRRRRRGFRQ
Excerpt: as §1, §2
Experimental conditions for tests are given in Table 7, and results of tests for representative compounds are given in Tables 8 (α1 receptors) and in Tables 9 (α2C receptors).

σ receptors = assay: Radioligand binding assay, σ receptors; settings: rat cerebral cortex, [3H]DTG 8 nM
Excerpt: as §1
as §2, with “This analysis was performed using a software developed at Cerep (Hill software) and validated by comparison with data generated by the commercial software SigmaPlot® 4.0 for Windows® (© 1997 by SPSS Inc.).” left out

| SMILES | inhibition at 1 µM [1] [%] | inhibition at 1 µM (5-HT2C receptor) [%] | inhibition at 1 µM (5-HT7 receptor) [%] | inhibition at 1 µM (α2C adrenergic receptors) [%] | σ [%] (σ receptors) | 5-HT1A [%] [1] [%] | 5-HT2C [%] (5-HT2C receptor) | 5-HT7 [%] (5-HT7 receptor) | α2C [%] (α2C adrenergic receptors) |
| --- | --- | --- | --- | --- | --- | --- | --- | --- | --- |
| O=S(=O)(NC1CN(CCOc2cccc3[nH]ccc23)C1)c1cccc(Cl)c1 [Compound 47, 3-Chloro-N-[1-[2-(1H-indol-4-yloxy)ethyl]azetidin-3-yl]benzene-sulphonamide] | 98 | 33 | 100 | 80 | 44 |  |  |  |  |
| O=S(=O)(NC1CCN(CCCc2noc3cc(F)ccc23)C1)c1cccc2ccccc12 (stereo not shown) [Compound 20, N-[1-[3-(6-Fluoro-1,2-benzoxazol-3-yl)propyl]pyrrolidin-3-yl]naphthalene-1-sulphonamide] | 67 | 33 | 98 | 78 | 83 |  |  |  |  |
| O=S(=O)(NCC1CCN(CCCc2noc3cc(F)ccc23)C1)c1cccc2ccccc12 (stereo not shown) [Compound 239, N-[[1-[3-(6-Fluoro-1,2-benzoxazol-3-yl)propyl]pyrrolidin-3-yl]methyl]naphthalene-1-sulphonamide] | 56 | 49 | 92 | 89 | 97 |  |  |  |  |
| Cc1cccc(S(=O)(=O)NC2CN(CCOc3cccc4c3OCCO4)C2)c1 [Compound 93, N-[1-[2-(2,3-Dihydro-1,4-benzodioxan-8-yloxy)ethyl]azetidin-3-yl]-3-methyl-benzenesulphonamide] |  |  |  |  | 35 | 98 | 50 | 99 | 84 |
| O=S(=O)(N[C@H]1CCN(CCCc2noc3cc(F)ccc23)C1)c1csc2ccccc12 [Compound 225, N-[(3S)-1-[3-(6-Fluoro-1,2-benzoxazol-3-yl)propyl]pyrrolidin-3-yl]benzothiophene-3-sulphonamide] | 62 | 72 | 100 | 80 | 96 |  |  |  |  |
| O=S(=O)(NC1CCN(CCCc2c[nH]c3ccc(F)cc23)C1)c1ccc2ccccc2c1 (stereo not shown) [Compound 80, N-[1-[3-(5-Fluoro-1H-indol-3-yl)propyl]pyrrolidin-3-yl]naphthalene-2-sulphonamide] | 98 | 86 | 93 | 88 | 81 |  |  |  |  |
| Cc1c(S(=O)(=O)N[C@@H]2CCN(CCCc3noc4cc(F)ccc34)C2)sc2ccc(Cl)cc12 [Compound 204, 5-Chloro-N-[(3R)-1-[3-(6-fluoro-1,2-benzoxazol-3-yl)propyl]pyrrolidin-3-yl]-3-methyl-benzothiophene-2-sulphonamide] | 71 | 87 | 87 | 89 | 90 |  |  |  |  |
| COc1ccc2cc(S(=O)(=O)N[C@H]3CCN(CCCc4noc5cc(F)ccc45)C3)ccc2c1 [Compound 231, N-[(3S)-1-[3-(6-Fluoro-1,2-benzoxazol-3-yl)propyl]pyrrolidin-3-yl]-6-methoxy-naphthalene-2-sulphonamide] | 34 | 75 | 88 | 89 | 87 |  |  |  |  |
| O=S(=O)(NCC1CCN(CCCc2noc3cc(F)ccc23)C1)c1ccc2cc(Cl)ccc2c1 (stereo not shown) [Compound 237, 6-Chloro-N-[[1-[3-(6-fluoro-1,2-benzoxazol-3-yl)propyl]pyrrolidin-3-yl]methyl]naphthalene-2-sulphonamide] | 45 | 79 | 96 | 82 | 88 |  |  |  |  |
| Cc1cc(S(=O)(=O)N[C@@H]2CCN(CCCc3noc4cc(F)ccc34)C2)c(C)s1 [Compound 222, N-[(3R)-1-[3-(6-Fluoro-1,2-benzoxazol-3-yl)propyl]pyrrolidin-3-yl]-2,5-dimethyl-thiophene-3-sulphonamide] | 72 | 65 | 102 | 77 | 95 |  |  |  |  |
| Cc1c(S(=O)(=O)N[C@H]2CCN(CCCc3noc4cc(F)ccc34)C2)sc2ccc(Cl)cc12 [Compound 205, 5-Chloro-N-[(3S)-1-[3-(6-fluoro-1,2-benzoxazol-3-yl)propyl]pyrrolidin-3-yl]-3-methyl-benzothiophene-2-sulphonamide] | 63 | 86 | 98 | 86 | 92 |  |  |  |  |
| O=S(=O)(NCC1CN(CCOc2cccc3c2OCCO3)C1)c1ccc(Cl)c(Cl)c1 [Compound 183, 3,4-Dichloro-N-[[1-[2-(2,3-dihydro-1,4-benzodioxin-5-yloxy)ethyl]azetidin-3-yl]methyl]benzenesulphonamide] | 98 | 98 | 102 | 99 | 94 |  |  |  |  |
| O=S(=O)(N[C@H]1CCN(CCCc2noc3cc(F)ccc23)C1)c1cc2ccccc2o1 [Compound 215, N-[(3S)-1-[3-(6-Fluoro-1,2-benzoxazol-3-yl)propyl]pyrrolidin-3-yl]benzo-furan-2-sulphonamide] | 52 | 74 | 98 | 66 | 81 |  |  |  |  |
| Cc1cccc(S(=O)(=O)NC2CCN(CCCc3c[nH]c4ccc(F)cc34)C2)c1 (stereo not shown) [Compound 78, N-[1-[3-(5-Fluoro-1H-indol-3-yl)propyl]pyrrolidin-3-yl]-3-methyl-benzenesulphonamide] | 99 | 78 | 89 | 85 | 70 |  |  |  |  |
